Source: ChEMBL document CHEMBL1138862 (J Med Chem, 2006)

Experiments:
Format in all cases: functional
Escherichia coli [1] = assay: Antibacterial activity against Escherichia coli W3110
Escherichia coli [2] = assay: Antibacterial activity against Escherichia coli pTMV19
Escherichia coli [3] = assay: Antibacterial activity against Escherichia coli pTMV19 in presence of mevalonate

Row | SMILES | inhibition zone (IZ) (Escherichia coli [1]) [mm] | inhibition zone (IZ) (Escherichia coli [2]) [mm] | inhibition zone (IZ) (Escherichia coli [3]) [mm]
1 | O=P(O)(O)C(Nc1ccc(Br)cn1)P(=O)(O)O | 12 | 11 | 8
2 | CCCCCCCCC(O)(P(=O)(O)O)P(=O)(O)O | 9 | 7 | 0
3 | O=P(O)(O)C(Sc1ccccn1)P(=O)(O)O | 0 | 0 | 0
4 | Cc1cc(Br)cnc1NC(P(=O)(O)O)P(=O)(O)O | 0 | 0 | 0
5 | Cc1cccc(CC(O)(P(=O)(O)O)P(=O)(O)O)c1 | 0 | 0 | 0
6 | O=P(O)(O)C(Nc1cccc(Cc2ccccc2)c1)P(=O)(O)O | 7 | 8 | 0
7 | O=P(O)(O)C(O)(Cc1cccc(Cl)c1)P(=O)(O)O | 8 | 11 | 0
8 | O=P(O)(O)C(O)(Cc1cccc(C(F)(F)F)c1)P(=O)(O)O | 7 | 7 | 0
9 | CCn1c2ccccc2c2cc(NC(P(=O)(O)O)P(=O)(O)O)ccc21 | 0 | 0 | 0
10 | Cc1ncccc1NC(P(=O)(O)O)P(=O)(O)O | 7 | 8 | 12
11 | Cc1ccc(C)c(COc2ccc(C)nc2NC(P(=O)(O)O)P(=O)(O)O)c1 | 0 | 0 | 0
12 | O=P(O)(O)C(Nc1ccccn1)P(=O)(O)O | 7 | 8 | 12
13 | O=P(O)(O)C(Nc1ccc(-c2ccccc2)cc1)P(=O)(O)O | 9 | 8 | 7
14 | CCCCCCCCCCC(O)(P(=O)(O)O)P(=O)(O)O | 0 | 0 | 0
15 | O=P(O)(O)C(O)(Cc1c[nH]cn1)P(=O)(O)O | 0 | 0 | 0
16 | CC(C)(C)c1cccc(NC(P(=O)(O)O)P(=O)(O)O)c1 | 7 | 7 | 0
17 | CC(C)c1cccc(NC(P(=O)(O)O)P(=O)(O)O)c1 | 8 | 9 | 0
18 | O=P(O)(O)C(O)(Cc1cccc(Br)c1)P(=O)(O)O | 12 | 14 | 0
19 | CC(NC(P(=O)(O)O)P(=O)(O)O)c1cccc2ccccc12 (stereo not given) | 0 | 0 | 0
20 | Cc1ccnc(N(Cc2ccccc2)C(P(=O)(O)O)P(=O)(O)O)c1 | 0 | 0 | 0
21 | CCCCCCCCc1ccc(C(O)(P(=O)(O)O)P(=O)(O)O)cc1 | 0 | 0 | 0
22 | O=P(O)(O)C(Nc1ccc(I)cn1)P(=O)(O)O | 7 | 7 | 7
23 | CCCCCCCc1ccc(NC(P(=O)(O)O)P(=O)(O)O)cc1 | 0 | 0 | 0

Row | SMILES | inhibition zone (IZ) (Escherichia coli [1]) [mm] | inhibition zone (IZ) (Escherichia coli [2]) [mm] | inhibition zone (IZ) (Escherichia coli [3]) [mm]
24 | Cc1cc(C)nc(NC(P(=O)(O)O)P(=O)(O)O)c1 | 11 | 7 | 0
25 | CN(CCOc1ccccc1)CCC(O)(P(=O)(O)O)P(=O)(O)O | 11 | 15 | 11
26 | CCCCCCCCCC(O)(P(=O)(O)O)P(=O)(O)O | 9 | 0 | 0
27 | O=P(O)(O)CC(c1ccccn1)P(=O)(O)O (stereo not given) | 0 | 0 | 0
28 | O=P(O)(O)C(Nc1ccc(Cl)cn1)P(=O)(O)O | 13 | 9 | 12
29 | CCCCCCC(CCCC)C(O)(P(=O)(O)O)P(=O)(O)O (stereo not given) | 0 | 0 | 0
30 | CCCCCCc1ccc(NC(P(=O)(O)O)P(=O)(O)O)cc1 | 0 | 0 | 0
31 | O=P(O)(O)C(Nc1cccc(-c2ccccc2)c1)P(=O)(O)O | 8 | 8 | 0
32 | Cc1cccc(NC(P(=O)(O)O)P(=O)(O)O)n1 | 7 | 10 | 8
33 | O=P(O)(O)C(Nc1cc(Cl)cc(Cl)c1)P(=O)(O)O [(3,5-DICHLOROPHENYLAMINO)METHYLENEDIPHOSPHONIC ACID] | 0 | 10 | 8
34 | O=P(O)(O)C(NC1CCCCC1)P(=O)(O)O [(CYCLOHEXYLAMINO)METHYLENEDIPHOSPHONIC ACID] | 7 | 8 | 9
35 | O=P(O)(O)C(NC1CCCCCCC1)P(=O)(O)O [(CYCLOOCTYLAMINO)METHYLENEDIPHOSPHONIC ACID] | 7 | 8 | 0
36 | O=C(N[C@H](CO)[C@H](O)c1ccc([N+](=O)[O-])cc1)C(Cl)Cl [CHLORAMPHENICOL] | 24 | 20 | 19
37 | NC[C@@H]1O[C@H](O[C@H]2[C@@H](O)[C@H](O[C@@H]3[C@@H](O)[C@H](N)C[C@H](N)[C@H]3O[C@H]3O[C@H](CN)[C@@H](O)[C@H](O)[C@H]3N)O[C@@H]2CO)[C@H](N)[C@@H](O)[C@@H]1O [FRAMYCETIN] | 15 | 18 | 12
38 | NC[C@H]1O[C@H](O[C@H]2[C@H](O)[C@@H](O[C@H]3O[C@H](CO)[C@@H](O)[C@H](N)[C@H]3O)[C@H](N)C[C@@H]2N)[C@H](O)[C@@H](O)[C@@H]1O [KANAMYCIN] | 21 | 22 | 17
39 | O=P(O)(O)C(N1CCCCCC1)P(=O)(O)O [N-(HEXAMETHYLENEIMINO)METHYLENEBISPHOSPHONIC ACID] | 0 | 0 | 0
40 | CO[C@@H]1[C@@H](OC(N)=O)[C@@H](O)[C@H](Oc2ccc3c(O)c(NC(=O)c4ccc(O)c(CC=C(C)C)c4)c(=O)oc3c2C)OC1(C)C [NOVOBIOCIN] | 9 | 9 | 15
41 | NCCC(O)(P(=O)(O)O)P(=O)(O)O [PAMIDRONIC ACID] | 0 | – | –
42 | O=P(O)(O)C(O)(Cc1cccnc1)P(=O)(O)O [RISEDRONIC ACID] | 0 | – | –
43 | CN[C@@H]1[C@H](O[C@H]2[C@H](O[C@H]3[C@H](O)[C@@H](O)[C@H](N=C(N)N)[C@@H](O)[C@@H]3N=C(N)N)O[C@@H](C)[C@]2(O)C=O)O[C@@H](CO)[C@H](O)[C@H]1O [STREPTOMYCIN] | 15 | 16 | 7
44 | CN(C)[C@@H]1C(O)=C(C(N)=O)C(=O)[C@@]2(O)C(O)=C3C(=O)c4c(O)cccc4[C@@](C)(O)[C@H]3C[C@@H]12 [TETRACYCLINE] | 21 | 21 | 22
45 | O=P(O)(O)C(N1CCSCC1)P(=O)(O)O [THIOMORPHOLINOMETHYLENEDIPHOSPHONIC ACID] | 0 | – | –
46 | O.O=P(O)(O)C(O)(Cn1ccnc1)P(=O)(O)O [ZOLEDRONIC ACID] | 0 | – | –
